{"source": "ChEMBL document CHEMBL4699511", "about": "“Cedrol, a Sesquiterpene Alcohol, Enhances the Anticancer Efficacy of Temozolomide in Attenuating Drug Resistance via Regulation of the DNA Damage Response and MGMT Expression” (J Nat Prod, 2020)", "key": {"[1]": {"assay": "Synergistic cytotoxicity against rat CTX TNA2 cells assessed as synergistic effect index at 134.9 uM after 48 hrs in presence of 206 uM TMZ by MTT assay", "type": "cell-based", "settings": "ctx tna2, 48 h"}, "RG2 [2]": {"system": "RG2", "assay": "Induction of DNA damage in rat RG2 cells assessed as H2A.X phosphorylation at ser139 at 112.4 uM after 48 hrs by Western blot analysis (reference value: 1)", "type": "functional"}, "RG2 [3]": {"system": "RG2", "assay": "Inhibition of ERK phosphorylation at Tyr204 residues in rat RG2 cells at 112.4uM after 48 hrs in presence of TMZ by Western blot analysis (reference value: 1)", "type": "cell-based"}, "RG2 [4]": {"system": "RG2", "assay": "Synergistic cytotoxicity against rat RG2 cells assessed as synergistic effect index at 89.9 uM after 48 hrs in presence of 515.1 uM TMZ by MTT assay", "type": "functional"}, "RG2 [5]": {"system": "RG2", "assay": "Synergistic cytotoxicity against rat RG2 cells assessed as synergistic effect index at 112.4 uM after 48 hrs in presence of 309 uM TMZ by MTT assay", "type": "functional"}, "RG2 [6]": {"system": "RG2", "assay": "Induction of cell cycle arrest in rat RG2 cells assessed as accumulation at G0/G1 phase at 112.4 uM after 12 hrs in presence of TMZ by propidium iodide staining based flow cytometric analysis (reference value: 57.81 +/- 1.9%)", "type": "functional"}, "DBTRG-05MG [7]": {"system": "DBTRG-05MG", "assay": "Induction of cell cycle arrest in human DBTRG-05MG cells assessed as CDK4 expression at 112.4 uM after 48 hrs by Western blot analysis (reference value: 1)", "type": "functional"}, "DBTRG-05MG [8]": {"system": "DBTRG-05MG", "assay": "Synergistic cytotoxicity against human DBTRG-05MG cells assessed as synergistic effect index at 134.9 uM after 48 hrs in presence of 515.1 uM TMZ by MTT assay", "type": "functional"}, "RG2 [9]": {"system": "RG2", "assay": "Synergistic cytotoxicity against rat RG2 cells assessed as combination index at 112.4 uM after 48 hrs in presence of 515.1 uM TMZ by MTT assay", "type": "functional"}, "RG2 [10]": {"system": "RG2", "assay": "Induction of cell cycle arrest in rat RG2 cells assessed as CyclinD1 expression at 112.4 uM after 48 hrs by Western blot analysis (reference value: 1)", "type": "functional"}, "RG2 [11]": {"system": "RG2", "assay": "Synergistic cytotoxicity against rat RG2 cells assessed as combination index at 134.9 uM after 48 hrs in presence of 103 uM TMZ by MTT assay", "type": "functional"}, "DBTRG-05MG [12]": {"system": "DBTRG-05MG", "assay": "Induction of cell cycle arrest in human DBTRG-05MG cells assessed as accumulation at G0/G1 phase at 112.4 uM after 24 hrs in presence of TMZ by propidium iodide staining based flow cytometric analysis (reference value: 47.16 +/- 1.55%)", "type": "functional"}, "RG2 [13]": {"system": "RG2", "assay": "Induction of cell cycle arrest in rat RG2 cells assessed as accumulation at S phase at 112.4 uM after 6 hrs in presence of TMZ by propidium iodide staining based flow cytometric analysis (reference value: 20.15 +/- 2.44%)", "type": "functional"}, "[14]": {"assay": "Synergistic cytotoxicity against rat CTX TNA2 cells assessed as combination index at 112.4 uM after 48 hrs in presence of 515.1 uM TMZ by MTT assay", "type": "cell-based", "settings": "ctx tna2, 48 h"}, "[15]": {"assay": "Effect of MGMT expression in human DBTRG-05MG cells at 112.4 uM after 48 hrs by Western blot analysis (reference value: 1)", "type": "functional"}, "DBTRG-05MG [16]": {"system": "DBTRG-05MG", "assay": "Inhibition of JNK phosphorylation at Thr183/Tyr185 residues in human DBTRG-05MG cells at 112.4uM after 48 hrs by Western blot analysis (reference value: 1)", "type": "cell-based"}, "RG2 [17]": {"system": "RG2", "assay": "Induction of DNA damage in rat RG2 cells at 112.4 uM after 48 hrs in presence of TMZ by p.H2A.X staining based fluorescent immunocytochemistry method", "type": "functional, cell-based"}, "RG2 [18]": {"system": "RG2", "assay": "Induction of cell cycle arrest in rat RG2 cells assessed as accumulation at S phase at 112.4 uM after 48 hrs in presence of TMZ by propidium iodide staining based flow cytometric analysis (reference value: 20.15 +/- 2.44%)", "type": "functional"}, "DBTRG-05MG [19]": {"system": "DBTRG-05MG", "assay": "Induction of apoptosis in human DBTRG-05MG cells assessed as increase in chromatin condensation at 112.4 uM after 48 hrs by TUNEL assay", "type": "functional, cell-based"}, "[20]": {"assay": "Synergistic cytotoxicity against rat CTX TNA2 cells assessed as synergistic effect index at 89.9 uM after 48 hrs in presence of 206 uM TMZ by MTT assay", "type": "cell-based", "settings": "ctx tna2, 48 h"}, "DBTRG-05MG [21]": {"system": "DBTRG-05MG", "assay": "Induction of cell cycle arrest in human DBTRG-05MG cells assessed as accumulation at G0/G1 phase at 112.4 uM after 48 hrs in presence of TMZ by propidium iodide staining based flow cytometric analysis (reference value: 47.16 +/- 1.55%)", "type": "functional"}, "DBTRG-05MG [22]": {"system": "DBTRG-05MG", "assay": "Synergistic cytotoxicity against human DBTRG-05MG cells assessed as combination index at 89.9 uM after 48 hrs in presence of 515.1 uM TMZ by MTT assay", "type": "functional"}, "DBTRG-05MG [23]": {"system": "DBTRG-05MG", "assay": "Induction of DNA damage in human DBTRG-05MG cells assessed as Chk1 phosphorylation at ser345 residues at 112.4 uM after 48 hrs by Western blot analysis (reference value: 1)", "type": "functional"}, "[24]": {"assay": "Effect of MDR1 expression in rat RG2 cells at 112.4 uM after 48 hrs by Western blot analysis", "type": "functional"}, "DBTRG-05MG [25]": {"system": "DBTRG-05MG", "assay": "Synergistic cytotoxicity against human DBTRG-05MG cells assessed as synergistic effect index at 89.9 uM after 48 hrs in presence of 515.1 uM TMZ by MTT assay", "type": "functional"}, "DBTRG-05MG [26]": {"system": "DBTRG-05MG", "assay": "Inhibition of JNK phosphorylation at Thr183/Tyr185 residues in human DBTRG-05MG cells at 112.4uM after 48 hrs in presence of TMZ by Western blot analysis (reference value: 1)", "type": "cell-based"}, "DBTRG-05MG [27]": {"system": "DBTRG-05MG", "assay": "Induction of cell cycle arrest in human DBTRG-05MG cells assessed as CyclinB1 expression at 112.4 uM after 48 hrs by Western blot analysis (reference value: 1)", "type": "functional"}, "DBTRG-05MG [28]": {"system": "DBTRG-05MG", "assay": "Induction of cell cycle arrest in human DBTRG-05MG cells assessed as CyclinA expression at 112.4 uM after 48 hrs in presence of TMZ by Western blot analysis (reference value: 1)", "type": "functional"}, "RG2 [29]": {"system": "RG2", "assay": "Induction of cell cycle arrest in rat RG2 cells assessed as CyclinB1 expression at 206 uM after 48 hrs by Western blot analysis (reference value: 1)", "type": "functional"}, "RG2 [30]": {"system": "RG2", "assay": "Induction of DNA damage in rat RG2 cells assessed as Chk2 phosphorylation at Thr68 at 206 uM after 48 hrs by Western blot analysis (reference value: 1)", "type": "functional"}, "DBTRG-05MG [31]": {"system": "DBTRG-05MG", "assay": "Induction of cell cycle arrest in human DBTRG-05MG cells assessed as CyclinA expression at 206 uM after 48 hrs by Western blot analysis (reference value: 1)", "type": "functional"}, "RG2 [32]": {"system": "RG2", "assay": "Induction of cell cycle arrest in rat RG2 cells assessed as accumulation at G0/G1 phase at 206 uM after 12 hrs by propidium iodide staining based flow cytometric analysis (reference value: 57.81 +/- 1.9%)", "type": "functional"}, "DBTRG-05MG [33]": {"system": "DBTRG-05MG", "assay": "Induction of cell cycle arrest in human DBTRG-05MG cells assessed as CDK4 expression at 206 uM after 48 hrs by Western blot analysis (reference value: 1)", "type": "functional"}, "DBTRG-05MG [34]": {"system": "DBTRG-05MG", "assay": "Inhibition of JNK phosphorylation at Thr183/Tyr185 residues in human DBTRG-05MG cells at 206 uM after 48 hrs by Western blot analysis (reference value: 1)", "type": "cell-based"}}, "note": "The source made the active and inactive calls. No cut-off for these calls is given here.", "data": [{"smiles": "C[C@@H]1CC[C@H]2C(C)(C)[C@H]3C[C@@]12CC[C@@]3(C)O", "note": "[CEDROL]", "values": [{"measurement": "Activity_index", "setting": "[1]", "result": 0.43}, {"measurement": "fold change (FC)", "setting": "RG2 [2]", "result": 1}, {"measurement": "fold change (FC)", "setting": "RG2 [3]", "result": 0.3}, {"measurement": "Activity_index", "setting": "RG2 [4]", "result": 0.69}, {"measurement": "Activity_index", "setting": "RG2 [5]", "result": 0.85}, {"measurement": "Activity", "setting": "RG2 [6]", "result": 61.92, "unit": "%"}, {"measurement": "fold change (FC)", "setting": "DBTRG-05MG [7]", "result": 1}, {"measurement": "Activity_index", "setting": "DBTRG-05MG [8]", "result": 0.89}, {"measurement": "CI", "setting": "RG2 [9]", "result": 1.06}, {"measurement": "fold change (FC)", "setting": "RG2 [10]", "result": 1.4}, {"measurement": "CI", "setting": "RG2 [11]", "result": 0.83}, {"measurement": "Activity", "setting": "DBTRG-05MG [12]", "result": 48.93, "unit": "%"}, {"measurement": "Activity", "setting": "RG2 [13]", "result": 19.02, "unit": "%"}, {"measurement": "CI", "setting": "[14]", "result": 0.87}, {"measurement": "fold change (FC)", "setting": "[15]", "result": 0.8}, {"measurement": "fold change (FC)", "setting": "DBTRG-05MG [16]", "result": 1}, {"measurement": "Activity", "setting": "RG2 [17]", "result": "Active"}, {"measurement": "Activity", "setting": "RG2 [18]", "result": 20.29, "unit": "%"}, {"measurement": "Activity", "setting": "DBTRG-05MG [19]", "result": "Active"}, {"measurement": "Activity_index", "setting": "[20]", "result": 0.39}, {"measurement": "Activity", "setting": "DBTRG-05MG [21]", "result": 41.16, "unit": "%"}, {"measurement": "CI", "setting": "DBTRG-05MG [22]", "result": 0.81}, {"measurement": "fold change (FC)", "setting": "DBTRG-05MG [23]", "result": 0.9}, {"measurement": "fold change (FC)", "setting": "[24]", "result": 2.1}, {"measurement": "Activity_index", "setting": "DBTRG-05MG [25]", "result": 0.77}, {"measurement": "fold change (FC)", "setting": "DBTRG-05MG [26]", "result": 0.8}, {"measurement": "fold change (FC)", "setting": "DBTRG-05MG [27]", "result": 0.5}, {"measurement": "fold change (FC)", "setting": "DBTRG-05MG [28]", "result": 1.6}]}, {"smiles": "Cn1nnc2c(C(N)=O)ncn2c1=O", "note": "[TEMOZOLOMIDE]", "values": [{"measurement": "fold change (FC)", "setting": "RG2 [29]", "result": 1.8}, {"measurement": "fold change (FC)", "setting": "RG2 [30]", "result": 1.3}, {"measurement": "fold change (FC)", "setting": "DBTRG-05MG [31]", "result": 1.9}, {"measurement": "Activity", "setting": "RG2 [32]", "result": 49.55, "unit": "%"}, {"measurement": "fold change (FC)", "setting": "DBTRG-05MG [33]", "result": 0.7}, {"measurement": "fold change (FC)", "setting": "DBTRG-05MG [34]", "result": 1.2}]}]}
